The values that follow are results of earlier work, collected in US5665745A, “Heterocyclic compounds and their preparation and use” (Eli Lilly and Company, priority 1995, dated 1997).

Read-outs that look alike come from different tables or passages of the source.

In data set [1] the target is muscarinic receptor in the CNS. The following applies: cited from earlier work.
The next data set concerns M1 -sites. The following applies: background statement; cited from earlier work.
The test system of a further data set is M2 -sites. The following applies: background statement; cited from earlier work.

Consider `C[N+](C)(C)CC#CCN1CCCC1=O` [^3 H-Oxo], for which the Kd in data set [1] (first of three sites labeled (high affinity)) was 1.8 nM; in data set [1] (second of three sites labeled (medium affinity)), 20 nM; in data set [1] (third of three sites labeled, read-out: affinity) it was 3000 nM.
Regarding `CN1CCN(CC(=O)N2c3ccccc3C(=O)Nc3cccnc32)CC1` [pirenzepine], the “selectivity for muscarinic receptor subtype” value in the data set on M1 -sites is recorded as “selective for M1 -sites”. The “interaction with M2 -sites” value in the data set on M2 -sites is “also interact with M2 -sites”.
